Earlier results as cited in patent US20160000731A1, “SORE-THROAT COMPOSITIONS AND RELATED METHODS” (Xlear, Inc., priority 2014, published 2016).

Columns and labels:
Streptococcus pneumonia = conditions: in vitro, during its logarithmic growth phase
dental caries = conditions: regular consumption

OC[C@@H](O)[C@H](O)[C@@H](O)CO [Xylitol]
growth of Streptococcus pneumonia (Streptococcus pneumonia): inhibit the growth
incidence of dental caries (dental caries): reduce the incidence of dental caries
